Experimental data as given in publication PMC12064818, “A general assay platform to study protein pharmacology using ligand-dependent structural dynamics” (Nature Communications, 2025).
Where two headings read alike, the source gives them in different places.

Assays:
[1] = target: FLuc-C-NLuc (firefly luciferase) (Photinus pyralis, UniProt P08659, form not given/L550V); assay: SDR assay, FLuc-C-NLuc; settings: - ATP
P. pyralis FLuc = P. pyralis FLuc (Photinus pyralis, UniProt P08659); assay: FLuc enzymatic luminescence assay, P. pyralis FLuc; type: biochemical; settings: FLuc enzymatic assay; for IC50: read-out: IC50 or SDR50 (mM) FLuc E
P. pyralis FLuc, sequence (P08659 whole entry): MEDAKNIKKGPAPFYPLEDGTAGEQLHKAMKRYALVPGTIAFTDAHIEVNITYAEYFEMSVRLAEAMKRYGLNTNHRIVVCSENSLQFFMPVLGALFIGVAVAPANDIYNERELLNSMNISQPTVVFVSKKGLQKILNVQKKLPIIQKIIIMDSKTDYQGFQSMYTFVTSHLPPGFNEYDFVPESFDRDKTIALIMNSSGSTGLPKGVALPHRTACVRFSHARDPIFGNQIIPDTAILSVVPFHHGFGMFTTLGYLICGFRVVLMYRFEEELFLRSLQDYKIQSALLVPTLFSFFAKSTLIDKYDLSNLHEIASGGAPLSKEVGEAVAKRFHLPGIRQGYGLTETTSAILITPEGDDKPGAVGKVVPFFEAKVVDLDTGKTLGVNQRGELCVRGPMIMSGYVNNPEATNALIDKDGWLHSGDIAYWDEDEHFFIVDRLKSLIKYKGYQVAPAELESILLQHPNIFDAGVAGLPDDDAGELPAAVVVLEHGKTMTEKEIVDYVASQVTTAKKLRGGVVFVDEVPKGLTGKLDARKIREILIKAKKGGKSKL
Protocol: The enzyme activity of FLuc-N-HiBiT, FLuc-C-HiBiT, and FLuc-C-NLuc was measured similar to P. pyralis firefly luciferase (FLuc) as previously described. […] Compounds and controls were added to each plate as described in Supplementary Data 8 with a Hornet pintool system (Wako Automation). Compounds were incubated with respective enzymes for 30–60 min at room temperature protected from light and covered by solid metal lid to prevent evaporation. […] Luciferin was incubated with FLuc enzyme for 5 min before FLuc activity was then measured on a ViewLux CCD imager (PerkinElmer), with exposure times up to ten seconds with medium to high gain settings. Data were normalized to average no enzyme control as 100% enzyme inhibition and average DMSO neutral control. See Supplementary Table 4 for additional details.
Assays were run in the presence (solid symbols) or absence
(open symbols) of 10 µM ATP. Corresponding SMIL E S for NC GC IDs and source data are provided in
Supplementary Data 3 and as a Source Data file. 10
Supplementary Table 4. Protocol for Firefly luciferase (FLuc) and NanoLuc (NLuc) enzymatic
Supplementary Table 4: Protocol for Firefly luciferase (FLuc) and NanoLuc (NLuc) enzym atic lum inescence assay
Firefly luciferase (FLuc) enzym atic lum inescence assay
Sequence Param eter Value Description
No enzym e control (colum n 1) and enzym e solution (1- 10 nM FLuc enzym e) in FLuc assay
1 Reagent 4 µLbuffer; white/solid bottom , m edium bind, high base plates (Greiner), dispensed with BioRaptr
com pounds transferred to respective colum ns with Pintool
2b Test Com pounds 23 nLconcentration range) in colum ns 5- 48; com pounds transferred to respective wells with
3 Incubation 30 m in Incubate enzym e + com pounds at am bient tem p for 30 m in, protected from light
4 Reagent 3 µLAdd 3 µL of D-luciferin substrate solution to each well (final concentration 10 µM); dispensed
(§1) 5 Detector ViewLux Read plate lum inescence (Exposure = 1- 10 sec; Gain = Medium -high; Speed = Slow;
Dispensing solution was diluted in 1X PBS, pH 7.4. […]

NLuc = target: T1, NLuc (Oplophorus gracilirostris, UniProt Q9GV45, A31E/A60N/A81I/F95D/I117V/K70R/L54V/L99Q/M102K/N193R/P142E/Q151K/Q38R/Q45L/V71I/Y165I); type: biochemical; settings: - ATP
T1 construct: His tag (inferred from IMAC purification); made in house; host or cells: E. coli
T1 sequence (Q9GV45 other isoform, or with tags, fused parts or gaps with the stated changes): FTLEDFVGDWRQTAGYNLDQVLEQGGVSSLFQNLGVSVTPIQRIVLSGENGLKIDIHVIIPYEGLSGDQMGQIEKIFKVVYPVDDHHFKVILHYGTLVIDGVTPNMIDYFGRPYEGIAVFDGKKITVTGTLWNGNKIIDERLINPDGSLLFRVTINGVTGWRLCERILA
Protocol: Compounds and controls were added to plates as described in Supplementary Data 8. Nano-Glo luciferase assay reagent (Promega) was prepared fresh according to manufacturer’s protocol, filtered and added at 3 μL per well across assay plates with a BioRaptr2 dispenser. Enzyme was incubated with Nano-Glo reagent for 10 min and NLuc luminescence was read on a ViewLux CCD imager (PerkinElmer), with 1 s exposure with medium gain and 2x binning. Data were normalized to average no enzyme control as 100% enzyme inhibition and average DMSO neutral control. See Supplementary Table 4 for additional details.
Supplementary Table 4. […]
Sequence Param eter Value Description […]
as §1
Dispensing solution was diluted in 1X PBS, pH 7.4.
NanoLuc luciferase (NLuc) enzym atic lum inescence assay […]
Nano-Glo luciferase assay reagent (Prom ega, Cat # N1120) prepared according to m anufacturer’s recom m endations,
4 com ponents stored at -30 °C until use, and reagent prepared fresh for each assay.
syringe filter prior to dispense.

[2] = target: FLuc-C-HiBiT (firefly luciferase) (Photinus pyralis, UniProt P08659, form not given/L550V); assay: SDR assay, FLuc-C-HiBiT; settings: SDR max. response, clade S
FLuc-C-HiBiT (firefly luciferase), sequence (P08659 2-550 L550V, form open): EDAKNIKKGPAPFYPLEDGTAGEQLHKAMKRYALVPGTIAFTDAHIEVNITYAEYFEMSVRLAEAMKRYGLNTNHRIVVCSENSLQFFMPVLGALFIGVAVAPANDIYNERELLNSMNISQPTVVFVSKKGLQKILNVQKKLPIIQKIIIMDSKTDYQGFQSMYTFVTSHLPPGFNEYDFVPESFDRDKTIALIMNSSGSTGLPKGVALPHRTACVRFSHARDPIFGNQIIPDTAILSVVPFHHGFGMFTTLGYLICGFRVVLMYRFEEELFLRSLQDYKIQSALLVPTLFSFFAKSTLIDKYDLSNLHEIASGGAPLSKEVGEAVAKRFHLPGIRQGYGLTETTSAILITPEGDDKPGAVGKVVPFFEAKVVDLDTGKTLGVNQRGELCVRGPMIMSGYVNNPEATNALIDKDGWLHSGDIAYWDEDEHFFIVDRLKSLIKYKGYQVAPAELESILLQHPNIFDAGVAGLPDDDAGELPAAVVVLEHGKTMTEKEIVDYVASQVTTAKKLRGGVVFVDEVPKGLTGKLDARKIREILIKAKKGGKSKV

FLuc-C-NLuc (firefly luciferase), sequence (P08659 2-550 L550V, form open): as above

Row | SMILES | Efficacy (%) FLuc-C-NLuc SDR (-ATP) [1] [%] | Efficacy (%) FLuc E (P. pyralis FLuc; Clade S follow-up) [%] | Efficacy (%) NLuc (- ATP) (NLuc) [%] | % Activity (max response, + ATP) [2] [%] | % Activity (max response, - ATP) [2] [%] | pIC50 or pSDR50 FLuc E (P. pyralis FLuc; Clade S follow-up) | IC50 (P. pyralis FLuc; Clade S follow-up) [mM] | pIC50 or pSDR50 FLuc E (P. pyralis FLuc) | IC50 (P. pyralis FLuc) [mM]
1 | CC(CNC(=O)C1CCN(C(=O)c2ncn3c2COC(c2ccc(F)cc2)C3)CC1)c1ccccc1 (stereo not shown) [NCGC00449827-01] | 0.00 | -13.06 | 0.00 | 15.49 | 0.00 |  |  |  | 
2 | Cc1ccc(C2Cn3cnc(C(=O)N4CCC(C(=O)NC5CCCC5)CC4)c3CO2)cc1 (stereo not shown) [NCGC00449881-01] | 0.00 | -51.50 | 0.00 | 73.27 | 0.00 | 4.96 | 0.0111 |  | 
3 | CCc1ccc(NC(=O)C2CCN(C(=O)c3ncn4c3COC(c3ccc(F)cc3)C4)CC2)cc1 (stereo not shown) [NCGC00449925-01] | 0.00 | -32.74 | 0.00 | 47.34 | 0.00 | 4.96 | 0.0111 |  | 
4 | COc1ccc(C2Cn3cnc(C(=O)N4CCC(C(=O)NCc5cccc(C)c5)CC4)c3CO2)cc1 (stereo not shown) [NCGC00449879-01] | 0.00 | 0.00 | 0.00 | 0.00 | 0.00 |  |  |  | 
5 | O=C(NCc1cc(F)cc(F)c1)C1CCN(C(=O)c2ncn3c2COC(c2ccc(F)cc2)C3)CC1 (stereo not shown) [NCGC00449820-01] | 0.00 | -30.45 | 0.00 | 44.22 | 0.00 |  |  | 4.96 | 0.0111
6 | O=C(NC1CC1)C1CCN(C(=O)c2ncn3c2COC(c2ccc(Cl)cc2)C3)CC1 (stereo not shown) [NCGC00449842-01] | 0.00 | -28.68 | 0.00 | 18.50 | 0.00 |  |  |  | 
7 | O=C(NCc1cccc(F)c1)C1CCN(C(=O)c2ncn3c2COC(c2ccc(F)cc2)C3)CC1 (stereo not shown) [NCGC00449837-01] | 0.00 | -43.87 | 0.00 | 75.17 | 0.00 | 5.01 | 0.00988 |  | 
8 | O=C(NCCc1ccccc1)C1CCN(C(=O)c2ncn3c2COC(c2ccc(F)cc2)C3)CC1 (stereo not shown) [NCGC00449826-01] | 0.00 | -26.42 | 0.00 | 27.00 | 0.00 |  |  |  | 
9 | O=C(NCCc1ccccc1)C1CCN(C(=O)c2ncn3c2COC(c2ccc(Cl)cc2)C3)CC1 (stereo not shown) [NCGC00449854-01] | 0.00 | -25.47 | 0.00 | 0.00 | 0.00 |  |  |  | 
10 | O=C(NC1CCCCCCC1)C1CCN(C(=O)c2ncn3c2COC(c2ccc(F)cc2)C3)CC1 (stereo not shown) [NCGC00449810-01] | 0.00 | -21.88 | 0.00 | 34.91 | 0.00 |  |  | 4.81 | 0.0157
11 | COc1ccc(C2Cn3cnc(C(=O)N4CCC(C(=O)NC(C)C)CC4)c3CO2)cc1 (stereo not shown) [NCGC00449857-01] | 0.00 | -19.61 | 0.00 | 13.32 | 0.00 |  |  |  | 
12 | CC(C)c1ccc(NC(=O)C2CCN(C(=O)c3ncn4c3COC(c3ccc(F)cc3)C4)CC2)cc1 (stereo not shown) [NCGC00449927-01] | 0.00 | -23.88 | 0.00 | 35.93 | 0.00 | 4.86 | 0.0139 |  | 
13 | O=C(NCc1ccc(F)c(Cl)c1)C1CCN(C(=O)c2ncn3c2COC(c2ccccc2)C3)CC1 (stereo not shown) [NCGC00449790-01] | 0.00 | -95.32 | -17.00 | 237.76 | 0.00 |  |  | 5.46 | 0.0035
14 | O=C(NCc1ccc(Cl)cc1)C1CCN(C(=O)c2ncn3c2COC(c2ccccc2)C3)CC1 (stereo not shown) [NCGC00449788-01] | 0.00 | -95.09 | 0.00 | 324.91 | 0.00 |  |  | 5.41 | 0.00393
15 | COc1ccc(C2Cn3cnc(C(=O)N4CCC(C(=O)NCCc5ccccc5)CC4)c3CO2)cc1 (stereo not shown) [NCGC00449871-01] | 0.00 | 0.00 | 0.00 | 0.00 | 0.00 |  |  |  | 
16 | COc1ccc(C2Cn3cnc(C(=O)N4CCC(C(=O)NC5CCC(C)CC5)CC4)c3CO2)cc1 (stereo not shown) [NCGC00449861-01] | 0.00 | 0.00 | 0.00 | 14.50 | 0.00 |  |  |  | 
17 | Cc1ccc(C2Cn3cnc(C(=O)N4CCC(C(=O)NCc5ccccc5C)CC4)c3CO2)cc1 (stereo not shown) [NCGC00449898-01] | 0.00 | -44.97 | 0.00 | 110.64 | 0.00 | 4.96 | 0.0111 |  | 
